According to patent US20030139362A1, “Methods of treating cognitive decline disease conditions with androgens” (priority 2000, published 2003):

Tests used:
female apoE4 mice = conditions: for probe trial (platform removed): time searching in the target quadrant: female apoE4 mice, P<0.05, Tukey-Kramer test, placebo-treated mice did not
Description: We tested whether administration of androgens might be successful for improving cognition in apoE4 female mice.

women = conditions: literature: Sherwin 1988 (surgically menopausal women); Yaffe 2000 (women with apoE4); cited from earlier work
[1] = plasma hormone levels by radioimmunoassay (RIA); assay type: in vivo; conditions: testosterone-treated female mice, subcutaneous Silastic capsule, after the behavioral testing
[2] = six-month-old female apoE4 mice, subcutaneous Silastic capsule, tested eight days after implantation

Compound	probe trial (platform removed): time searching in the target quadrant (female apoE4 mice)	memory retention in the water maze (female apoE4 mice; [2])	cognition / cognitive function in women (women)	plasma testosterone levels [1]	learning in the water maze (hidden platform sessions) (female apoE4 mice; six-month-old female apoE4 mice, subcutaneous Silastic capsule, tested eight days after implantation, P<0.05 vs placebo)
C[C@]12CCC(=O)C[C@@H]1CC[C@@H]1[C@@H]2CC[C@]2(C)[C@@H](O)CC[C@@H]12 [dihydrotestosterone]	spent significantly more time searching in the target quadrant than in any of the other quadrants	improved memory retention	–	–	–
C[C@]12CC[C@H]3[C@@H](CCC4=CC(=O)CC[C@@]43C)[C@@H]1CC[C@@H]2O [testosterone]	spent significantly more time searching in the target quadrant than in any of the other quadrants	improved memory retention	improved cognition in surgically menopausal women	5.61 ± 0.74 ng/mL	improved learning
Estrogen	–	–	failed to preserve cognitive function in women with apoE4	–	–
